In PubChem BioAssay AID1259407 (Chemical Carcinogenesis Research Information System (CCRIS), 2018):
The source made the active and inactive calls. The rule behind the calls is not given here.

System: CCRIS mutagenicity, Ames/micronucleus/aberration tests
Assay: CCRIS mutagenicity studies
[1] = Test System: AMES SALMONELLA TYPHIMURIUM, Strain/Indicator: TA100, Metabolic Activation: RAT, LIVER, S-9, AROCLOR 1254, Method: STANDARD PLATE
[2] = Test System: AMES SALMONELLA TYPHIMURIUM, Strain/Indicator: TA1537, Metabolic Activation: RAT, LIVER, S-9, AROCLOR 1254, Method: STANDARD PLATE
[3] = Test System: AMES SALMONELLA TYPHIMURIUM, Strain/Indicator: TA100, Metabolic Activation: NONE, Method: STANDARD PLATE
[4] = Test System: AMES SALMONELLA TYPHIMURIUM, Strain/Indicator: TA98, Metabolic Activation: NONE, Method: STANDARD PLATE
[5] = Test System: AMES SALMONELLA TYPHIMURIUM, Strain/Indicator: TA98, Metabolic Activation: RAT, LIVER, S-9, AROCLOR 1254, Method: STANDARD PLATE

For CC(C)(O)C#N, the mutagenic call (Test System: AMES SALMONELLA TYPHIMURIUM, Strain/Indicator: TA97, Metabolic Activation: HAMSTER, LIVER, S-9, AROCLOR 1254 (10 OR 30%), Method: PREINCUBATION) was “inactive; negative”, the mutagenic call (Test System: AMES SALMONELLA TYPHIMURIUM, Strain/Indicator: TA97, Metabolic Activation: NONE, Method: PREINCUBATION) was “inactive; negative” and the mutagenic call (Test System: AMES SALMONELLA TYPHIMURIUM, Strain/Indicator: TA97, Metabolic Activation: RAT, LIVER, S-9, AROCLOR 1254 (10%), Method: PREINCUBATION) was “inactive; negative”. For the same compound, the mutagenic call (Test System: AMES SALMONELLA TYPHIMURIUM, Strain/Indicator: TA97, Metabolic Activation: RAT, LIVER, S-9, AROCLOR 1254 (30%), Method: PREINCUBATION) was “inactive; negative”, the mutagenic call (Test System: AMES SALMONELLA TYPHIMURIUM, Strain/Indicator: TA98, Metabolic Activation: HAMSTER, LIVER, S-9, AROCLOR 1254 (10 OR 30%), Method: PREINCUBATION) was “inactive; negative” and the mutagenic call (Test System: AMES SALMONELLA TYPHIMURIUM, Strain/Indicator: TA98, Metabolic Activation: NONE, Method: PREINCUBATION) was “inactive; negative”. For the same compound, the mutagenic call (Test System: AMES SALMONELLA TYPHIMURIUM, Strain/Indicator: TA98, Metabolic Activation: RAT, LIVER, S-9, AROCLOR 1254 (10%), Method: PREINCUBATION) was “inactive; negative”, the mutagenic call (Test System: AMES SALMONELLA TYPHIMURIUM, Strain/Indicator: TA98, Metabolic Activation: RAT, LIVER, S-9, AROCLOR 1254 (30%), Method: PREINCUBATION) was “inactive; negative” and the mutagenic call (Test System: AMES SALMONELLA TYPHIMURIUM, Strain/Indicator: TA100, Metabolic Activation: HAMSTER, LIVER, S-9, AROCLOR 1254 (10 OR 30%), Method: PREINCUBATION) was “inactive; negative”. The mutagenic call (Test System: AMES SALMONELLA TYPHIMURIUM, Strain/Indicator: TA100, Metabolic Activation: NONE, Method: PREINCUBATION) was “inactive; negative”, the mutagenic call (Test System: AMES SALMONELLA TYPHIMURIUM, Strain/Indicator: TA100, Metabolic Activation: RAT, LIVER, S-9, AROCLOR 1254 (10%), Method: PREINCUBATION) was “inactive; negative” and the mutagenic call (Test System: AMES SALMONELLA TYPHIMURIUM, Strain/Indicator: TA100, Metabolic Activation: RAT, LIVER, S-9, AROCLOR 1254 (30%), Method: PREINCUBATION) was “inactive; negative”. The mutagenic call (Test System: AMES SALMONELLA TYPHIMURIUM, Strain/Indicator: TA1535, Metabolic Activation: HAMSTER, LIVER, S-9, AROCLOR 1254 (10 OR 30%), Method: PREINCUBATION) was “inactive; negative”, the mutagenic call (Test System: AMES SALMONELLA TYPHIMURIUM, Strain/Indicator: TA1535, Metabolic Activation: NONE, Method: PREINCUBATION) was “inactive; negative” and the mutagenic call (Test System: AMES SALMONELLA TYPHIMURIUM, Strain/Indicator: TA1535, Metabolic Activation: RAT, LIVER, S-9, AROCLOR 1254 (10%), Method: PREINCUBATION) was “inactive; negative”. For the same compound, the mutagenic call (Test System: AMES SALMONELLA TYPHIMURIUM, Strain/Indicator: TA1535, Metabolic Activation: RAT, LIVER, S-9, AROCLOR 1254 (30%), Method: PREINCUBATION) was “inactive; negative”.
For O[C@@H]1[C@H]2O[C@H]2c2c(ccc3ccc4ccccc4c23)[C@H]1O, the mutagenic call (Test System: E. COLI, Strain/Indicator: CL101P, Metabolic Activation: NONE, Method: PREINCUBATION) was “active; positive”, the mutagenic call (Test System: E. COLI, Strain/Indicator: CL102P, Metabolic Activation: NONE, Method: PREINCUBATION) was “active; positive” and the mutagenic call (Test System: E. COLI, Strain/Indicator: CL103P, Metabolic Activation: NONE, Method: PREINCUBATION) was “active; positive”. The mutagenic call (Test System: E. COLI, Strain/Indicator: CL104P, Metabolic Activation: NONE, Method: PREINCUBATION) was “active; positive”, the mutagenic call (Test System: E. COLI, Strain/Indicator: CL105P, Metabolic Activation: NONE, Method: PREINCUBATION) was “active; positive” and the mutagenic call (Test System: E. COLI, Strain/Indicator: CL106P, Metabolic Activation: NONE, Method: PREINCUBATION) was “active; positive”.
With c1ccc2c(c1)ccc1nc3ccc4ccccc4c3cc12 the mutagenic call (Test System: AMES SALMONELLA TYPHIMURIUM, Strain/Indicator: TA98, Metabolic Activation: GUINEA PIG, LIVER, S-9, 3-METHYLCHOLANTHRENE, Method: STANDARD PLATE) was “inactive; negative”, the mutagenic call (Test System: AMES SALMONELLA TYPHIMURIUM, Strain/Indicator: TA100, Metabolic Activation: GUINEA PIG, LIVER, S-9, 3-METHYLCHOLANTHRENE, Method: STANDARD PLATE) was “active; positive” and the mutagenic call [1] was “active; positive”. The mutagenic call [2] was “active; positive”, the mutagenic call (Test System: AMES SALMONELLA TYPHIMURIUM, Strain/Indicator: TA1537, Metabolic Activation: RAT, LIVER, S-9, PHENOBARBITAL, Method: STANDARD PLATE) was “active; positive” and the mutagenic call (Test System: AMES SALMONELLA TYPHIMURIUM, Strain/Indicator: TA1538, Metabolic Activation: RAT, LIVER, S-9, PHENOBARBITAL, Method: STANDARD PLATE) was “active; positive”. For the same compound, the mutagenic call (Test System: CHINESE HAMSTER V-79, Strain/Indicator: V-79/6-THIOGUANINE, Metabolic Activation: GUINEA PIG, LIVER, S-9, 3-METHYLCHOLANTHRENE) was “active; positive”.
COc1nsc2c(OCC3CO3)cccc12 (stereo unspecified) was tested, and the mutagenic call [3] was “active; positive”.
With CCc1ccco1 the mutagenic call (Test System: AMES SALMONELLA TYPHIMURIUM, Strain/Indicator: TA98, Metabolic Activation: HAMSTER, LIVER, S-9, AROCLOR 1254, Method: STANDARD PLATE) was “inactive; negative”, the mutagenic call [4] was “inactive; negative” and the mutagenic call [5] was “inactive; negative”. The mutagenic call (Test System: AMES SALMONELLA TYPHIMURIUM, Strain/Indicator: TA100, Metabolic Activation: HAMSTER, LIVER, S-9, AROCLOR 1254, Method: STANDARD PLATE) was “inactive; negative”, the mutagenic call [3] was “inactive; negative” and the mutagenic call [1] was “inactive; negative”. The mutagenic call (Test System: AMES SALMONELLA TYPHIMURIUM, Strain/Indicator: TA1535, Metabolic Activation: HAMSTER, LIVER, S-9, AROCLOR 1254, Method: STANDARD PLATE) was “inactive; negative”, the mutagenic call (Test System: AMES SALMONELLA TYPHIMURIUM, Strain/Indicator: TA1535, Metabolic Activation: NONE, Method: STANDARD PLATE) was “inactive; negative” and the mutagenic call (Test System: AMES SALMONELLA TYPHIMURIUM, Strain/Indicator: TA1535, Metabolic Activation: RAT, LIVER, S-9, AROCLOR 1254, Method: STANDARD PLATE) was “inactive; negative”. The mutagenic call (Test System: AMES SALMONELLA TYPHIMURIUM, Strain/Indicator: TA1537, Metabolic Activation: HAMSTER, LIVER, S-9, AROCLOR 1254, Method: STANDARD PLATE) was “inactive; negative”, the mutagenic call (Test System: AMES SALMONELLA TYPHIMURIUM, Strain/Indicator: TA1537, Metabolic Activation: NONE, Method: STANDARD PLATE) was “inactive; negative” and the mutagenic call [2] was “inactive; negative”. The mutagenic call (Test System: AMES SALMONELLA TYPHIMURIUM, Strain/Indicator: TA1538, Metabolic Activation: HAMSTER, LIVER, S-9, AROCLOR 1254, Method: STANDARD PLATE) was “inactive; negative”, the mutagenic call (Test System: AMES SALMONELLA TYPHIMURIUM, Strain/Indicator: TA1538, Metabolic Activation: NONE, Method: STANDARD PLATE) was “inactive; negative” and the mutagenic call (Test System: AMES SALMONELLA TYPHIMURIUM, Strain/Indicator: TA1538, Metabolic Activation: RAT, LIVER, S-9, AROCLOR 1254, Method: STANDARD PLATE) was “inactive; negative”. The mutagenic call (Test System: MOUSE LYMPHOMA, Strain/Indicator: L5178Y (TK+/TK-), Metabolic Activation: NONE, Method: SUSPENSION/PLATE) was “inactive; negative”, the mutagenic call (Test System: MOUSE LYMPHOMA, Strain/Indicator: L5178Y (TK+/TK-), Metabolic Activation: RAT, LIVER, S-9, AROCLOR 1254, Method: SUSPENSION/PLATE) was “active; positive” and the mutagenic call (Test System: Mouse lymphoma, Strain/Indicator: L5178Y (tk+/tk-), Metabolic Activation: Rat, Liver, S-9, Aroclor 1254, Method: Suspension/plate) was “active; equivocal (previous evaluation positive)”.
For OC/C=C/C=C/CO, the mutagenic call (Test System: CHINESE HAMSTER V-79, Strain/Indicator: V-79 (HGPRT)/8-AZAGUANINE, Metabolic Activation: NONE) was “inactive; negative”.
With O=C1c2ccccc2-c2cc3ccccc3cc21 the mutagenic call [4] was “active; positive” and the mutagenic call [5] was “active; positive”.
